In patent US6737383B1, “Herbicidal oxadiazolidines” (priority 1999, dated 2004):

How the values were obtained:
[1] = tested on: surinam grass; test: Test B pre/postemergence surinam grass; format: in vivo, Brachiaria decumbens
Method in brief: (§1)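 Test chemicals in a non-phytotoxic solvent mixture with surfactant were sprayed preemergence onto planted seeds and postemergence onto plants 2 to 18 cm tall (1- to 4-leaf stage). After twelve to sixteen days in a greenhouse, injury was visually rated against untreated controls from 0 (no effect) to 10 (complete control).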

[2] = tested on: crabgrass; test: Test B pre/postemergence crabgrass; format: in vivo, Digitaria sanguinalis
Method in brief: as §1

[3] = tested on: morningglory; test: Test B pre/postemergence morningglory; format: in vivo, Ipomoea hederacea
Method in brief: as §1

[4] = tested on: wild oat; test: Test B pre/postemergence wild oat; format: in vivo, Avena fatua
Method in brief: as §1

[5] = tested on: purple nutsedge; test: Test B pre/postemergence purple nutsedge; format: in vivo, Cyperus rotundus
Method in brief: as §1

[6] = tested on: rape; test: Test B pre/postemergence rape; format: in vivo, Brassica napus
Method in brief: as §1

[7] = tested on: corn; test: Test B pre/postemergence corn; format: in vivo, Zea mays
Method in brief: as §1

[8] = tested on: giant foxtail; test: Test B pre/postemergence giant foxtail; format: in vivo, Setaria faberii
Method in brief: as §1

[9] = tested on: blackgrass; test: Test B pre/postemergence blackgrass; format: in vivo, Alopecurus myosuroides
Method in brief: as §1

[10] = tested on: velvetleaf; test: Test B pre/postemergence velvetleaf; format: in vivo, Abutilon theophrasti
Method in brief: as §1

[11] = tested on: bedstraw; test: Test B pre/postemergence bedstraw; format: in vivo, Galium aparine
Method in brief: as §1

[12] = tested on: cocklebur; test: Test B pre/postemergence cocklebur; format: in vivo, Xanthium strumarium
Method in brief: as §1

[13] = tested on: wheat; test: Test B pre/postemergence wheat; format: in vivo, Triticum aestivum
Method in brief: as §1

[14] = tested on: pigweed; test: Test B pre/postemergence pigweed; format: in vivo, Amaranthus retroflexus
Method in brief: as §1

[15] = tested on: soybean; test: Test B pre/postemergence soybean; format: in vivo, Glycine max
Method in brief: as §1

[16] = Postemergence, Rate 31 g/ha, visual rating, scale 0 to 10 (0 no effect, 10 complete control)
[17] = Preemergence, Rate 31 g/ha, visual rating, scale 0 to 10 (0 no effect, 10 complete control)
[18] = Preemergence, Rate 62 g/ha, scale of 0 to 10 where 0 is no effect and 10 is complete control
[19] = Preemergence, Rate 250 g/ha, scale of 0 to 10 where 0 is no effect and 10 is complete control
[20] = Rate 62 g/ha, Postemergence, scale 0 to 10 (0 no effect, 10 complete control)
[21] = Rate 125 g/ha, Postemergence, scale of 0 to 10 where 0 is no effect and 10 is complete control
[22] = Rate 125 g/ha, Preemergence, scale of 0 to 10 where 0 is no effect and 10 is complete control
[23] = Rate 250 g/ha, Postemergence, scale of 0 to 10 where 0 is no effect and 10 is complete control
[24] = Preemergence, Rate 500 g/ha, scale of 0 to 10 where 0 is no effect and 10 is complete control
[25] = Rate 500 g/ha, Postemergence, scale 0 to 10, 0 no effect, 10 complete control

CC(C)N(C(=O)n1oc(=O)n(C(C)C)c1=O)c1cnccn1 [Compound 296]
B. signalgrass plant response rating [1, 16]: 0
B. signalgrass plant response rating [1, 17]: 0
B. signalgrass plant response rating [1, 18]: 0
B. signalgrass plant response rating [1, 19]: 0
B. signalgrass plant response rating [1, 20]: 0
B. signalgrass plant response rating [1, 21]: 0
B. signalgrass plant response rating [1, 22]: 0
Plant response rating, B. signalgrass [1, 23]: 0
Crabgrass plant response rating [2, 16]: 0
Crabgrass plant response rating [2, 17]: 0
Crabgrass plant response rating [2, 18]: 0
Crabgrass plant response rating [2, 19]: 0
Crabgrass plant response rating [2, 20]: 0
Crabgrass plant response rating [2, 21]: 0
Crabgrass plant response rating [2, 22]: 0
Plant response rating, Crabgrass [2, 23]: 0
Morningglory plant response rating [3, 16]: 0
Morningglory plant response rating [3, 18]: 0
Morningglory plant response rating [3, 19]: 0
Morningglory plant response rating [3, 20]: 0
Morningglory plant response rating [3, 21]: 0
Morningglory plant response rating [3, 22]: 0
Plant response rating, Morningglory [3, 23]: 1
Wild oats plant response rating [4, 16]: 0
Wild oats plant response rating [4, 18]: 0
Wild oats plant response rating [4, 19]: 0
Wild oats plant response rating [4, 20]: 0
Wild oats plant response rating [4, 21]: 0
Plant response rating, Wild oats [4, 23]: 0
Nutsedge plant response rating [5, 16]: 0
Nutsedge plant response rating [5, 18]: 0
Nutsedge plant response rating [5, 20]: 0
Nutsedge plant response rating [5, 21]: 0
Nutsedge plant response rating [5, 22]: 0
Plant response rating, Nutsedge [5, 23]: 0
Rape plant response rating [6, 16]: 0
Rape plant response rating [6, 18]: 0
Rape plant response rating [6, 19]: 0
Rape plant response rating [6, 20]: 0
Rape plant response rating [6, 21]: 0
Rape plant response rating [6, 22]: 0
Plant response rating, Rape [6, 23]: 0
Corn plant response rating [7, 16]: 0
Corn plant response rating [7, 17]: 0
Corn plant response rating [7, 18]: 0
Corn plant response rating [7, 19]: 0
Corn plant response rating [7, 20]: 0
Corn plant response rating [7, 21]: 0
Corn plant response rating [7, 22]: 0
Plant response rating, Corn [7, 23]: 0
Giant foxtail plant response rating [8, 16]: 0
Giant foxtail plant response rating [8, 17]: 0
Giant foxtail plant response rating [8, 18]: 0
Giant foxtail plant response rating [8, 19]: 0
Giant foxtail plant response rating [8, 20]: 0
Giant foxtail plant response rating [8, 21]: 0
Giant foxtail plant response rating [8, 22]: 0
Plant response rating, Giant foxtail [8, 23]: 0
Blackgrass plant response rating [9, 16]: 0
Blackgrass plant response rating [9, 17]: 0
Blackgrass plant response rating [9, 18]: 0
Blackgrass plant response rating [9, 19]: 0
Blackgrass plant response rating [9, 20]: 0
Blackgrass plant response rating [9, 21]: 0
Blackgrass plant response rating [9, 22]: 0
Plant response rating, Blackgrass [9, 23]: 0
Velvetleaf plant response rating [10, 16]: 0
Velvetleaf plant response rating [10, 18]: 0
Velvetleaf plant response rating [10, 19]: 0
Velvetleaf plant response rating [10, 20]: 0
Velvetleaf plant response rating [10, 21]: 0
Velvetleaf plant response rating [10, 22]: 0
Plant response rating, Velvetleaf [10, 23]: 0
Bedstraw plant response rating [11, 16]: 0
Bedstraw plant response rating [11, 17]: 0
Bedstraw plant response rating [11, 18]: 0
Bedstraw plant response rating [11, 19]: 0
Bedstraw plant response rating [11, 20]: 0
Bedstraw plant response rating [11, 21]: 0
Bedstraw plant response rating [11, 22]: 0
Plant response rating, Bedstraw [11, 23]: 0
Cocklebur plant response rating [12, 16]: 0
Cocklebur plant response rating [12, 17]: 0
Cocklebur plant response rating [12, 18]: 0
Cocklebur plant response rating [12, 19]: 0
Cocklebur plant response rating [12, 20]: 0
Cocklebur plant response rating [12, 21]: 0
Cocklebur plant response rating [12, 22]: 0
Plant response rating, Cocklebur [12, 23]: 0
Wheat plant response rating [13, 16]: 0
Wheat plant response rating [13, 18]: 0
Wheat plant response rating [13, 19]: 0
Wheat plant response rating [13, 20]: 0
Wheat plant response rating [13, 21]: 0
Wheat plant response rating [13, 22]: 0
Plant response rating, Wheat [13, 23]: 0
Redroot pigweed plant response rating [14, 16]: 0
Redroot pigweed plant response rating [14, 18]: 0
Redroot pigweed plant response rating [14, 19]: 0
Redroot pigweed plant response rating [14, 20]: 0
Redroot pigweed plant response rating [14, 21]: 0
Redroot pigweed plant response rating [14, 22]: 0
Plant response rating, Redroot pigweed [14, 23]: 0
Soybean plant response rating [15, 16]: 0
Soybean plant response rating [15, 18]: 0
Soybean plant response rating [15, 19]: 0
Soybean plant response rating [15, 20]: 0
Soybean plant response rating [15, 21]: 0
Soybean plant response rating [15, 22]: 0
Plant response rating, Soybean [15, 23]: 1

Cc1ccccc1-n1c(=O)on(C(=O)N(c2ccc(OC(F)(F)F)cc2)C(C)C)c1=O [Compound 300]
B. signalgrass plant response rating [1, 18]: 0
B. signalgrass plant response rating (0 to 10 scale, 0 is no effect, 10 is complete control) ([1]; Preemergence, Rate 125 g/ha): 0
B. signalgrass plant response rating [1, 19]: 0
B. signalgrass plant response rating [1, 24]: 2
B. signalgrass plant response rating [1, 20]: 0
B. signalgrass plant response rating [1, 21]: 0
Plant response rating, B. signalgrass [1, 23]: 0
B. signalgrass plant response rating [1, 25]: 0
Crabgrass plant response rating [2, 18]: 0
Crabgrass plant response rating (0 to 10 scale) ([2]; Preemergence, Rate 125 g/ha): 2
Crabgrass plant response rating [2, 19]: 4
Crabgrass plant response rating [2, 24]: 7
Crabgrass plant response rating [2, 20]: 0
Crabgrass plant response rating [2, 21]: 0
Plant response rating, Crabgrass [2, 23]: 0
Morningglory plant response rating [3, 18]: 0
Morningglory plant response rating (0 to 10 scale) ([3]; Preemergence, Rate 125 g/ha): 0
Morningglory plant response rating [3, 19]: 0
Morningglory plant response rating [3, 24]: 0
Morningglory plant response rating [3, 20]: 0
Morningglory plant response rating [3, 21]: 0
Plant response rating, Morningglory [3, 23]: 0
Wild oats plant response rating [4, 18]: 0
Wild oats plant response rating (0 to 10 scale) ([4]; Preemergence, Rate 125 g/ha): 0
Wild oats plant response rating [4, 19]: 0
Wild oats plant response rating [4, 24]: 3
Wild oats plant response rating [4, 20]: 0
Wild oats plant response rating [4, 21]: 0
Plant response rating, Wild oats [4, 23]: 0
Nutsedge plant response rating [5, 18]: 0
Nutsedge plant response rating (0 to 10 scale) ([5]; Preemergence, Rate 125 g/ha): 0
Nutsedge plant response rating [5, 19]: 0
Nutsedge plant response rating [5, 24]: 0
Nutsedge plant response rating [5, 20]: 0
Nutsedge plant response rating [5, 21]: 0
Plant response rating, Nutsedge [5, 23]: 0
Rape plant response rating [6, 18]: 0
Rape plant response rating (0 to 10 scale) ([6]; Preemergence, Rate 125 g/ha): 0
Rape plant response rating [6, 19]: 0
Rape plant response rating [6, 24]: 0
Rape plant response rating [6, 20]: 0
Rape plant response rating [6, 21]: 0
Plant response rating, Rape [6, 23]: 0
Corn plant response rating [7, 18]: 0
Corn plant response rating (0 to 10 scale) ([7]; Preemergence, Rate 125 g/ha): 0
Corn plant response rating [7, 19]: 0
Corn plant response rating [7, 24]: 0
Corn plant response rating [7, 20]: 0
Corn plant response rating [7, 21]: 0
Plant response rating, Corn [7, 23]: 0
Corn plant response rating [7, 25]: 0
Giant foxtail plant response rating [8, 18]: 0
Giant foxtail plant response rating (0 to 10 scale) ([8]; Preemergence, Rate 125 g/ha): 5
Giant foxtail plant response rating [8, 19]: 9
Giant foxtail plant response rating [8, 24]: 10
Giant foxtail plant response rating [8, 20]: 0
Giant foxtail plant response rating [8, 21]: 0
Plant response rating, Giant foxtail [8, 23]: 0
Blackgrass plant response rating [9, 18]: 0
Blackgrass plant response rating (0 to 10 scale) ([9]; Preemergence, Rate 125 g/ha): 0
Blackgrass plant response rating [9, 19]: 0
Blackgrass plant response rating [9, 24]: 0
Blackgrass plant response rating [9, 20]: 0
Blackgrass plant response rating [9, 21]: 0
Plant response rating, Blackgrass [9, 23]: 0
Blackgrass plant response rating [9, 25]: 0
Velvetleaf plant response rating [10, 18]: 0
Velvetleaf plant response rating (0 to 10 scale) ([10]; Preemergence, Rate 125 g/ha): 0
Velvetleaf plant response rating [10, 19]: 0
Velvetleaf plant response rating [10, 24]: 0
Velvetleaf plant response rating [10, 20]: 0
Velvetleaf plant response rating [10, 21]: 0
Plant response rating, Velvetleaf [10, 23]: 0
Bedstraw plant response rating [11, 19]: 0
Bedstraw plant response rating [11, 24]: 8
Bedstraw plant response rating [11, 20]: 0
Bedstraw plant response rating [11, 21]: 0
Plant response rating, Bedstraw [11, 23]: 0
Bedstraw plant response rating [11, 25]: 0
Cocklebur plant response rating [12, 18]: 0
Cocklebur plant response rating (0 to 10 scale) ([12]; Preemergence, Rate 125 g/ha): 0
Cocklebur plant response rating [12, 19]: 0
Cocklebur plant response rating [12, 20]: 0
Cocklebur plant response rating [12, 21]: 0
Plant response rating, Cocklebur [12, 23]: 0
Cocklebur plant response rating [12, 25]: 0
Wheat plant response rating [13, 18]: 0
Wheat plant response rating (0 to 10 scale) ([13]; Preemergence, Rate 125 g/ha): 0
Wheat plant response rating [13, 19]: 0
Wheat plant response rating [13, 24]: 2
Wheat plant response rating [13, 20]: 0
Wheat plant response rating [13, 21]: 0
Plant response rating, Wheat [13, 23]: 0
Redroot pigweed plant response rating [14, 18]: 0
Redroot pigweed plant response rating (0 to 10 scale) ([14]; Preemergence, Rate 125 g/ha): 0
Redroot pigweed plant response rating [14, 19]: 0
Redroot pigweed plant response rating [14, 24]: 0
Redroot pigweed plant response rating [14, 20]: 0
Redroot pigweed plant response rating [14, 21]: 0
Plant response rating, Redroot pigweed [14, 23]: 0
Soybean plant response rating [15, 18]: 0
Soybean plant response rating (0 to 10 scale) ([15]; Preemergence, Rate 125 g/ha): 0
Soybean plant response rating [15, 19]: 0
Soybean plant response rating [15, 24]: 0
Soybean plant response rating [15, 20]: 1
Soybean plant response rating [15, 21]: 2
Plant response rating, Soybean [15, 23]: 2
